From US10836789B2, “Inhibitors of glucocorticoid receptor” (ORIC Pharmaceuticals, Inc., priority 2016, dated 2020)

What was measured:
GR = target: T1, GR (Homo sapiens, UniProt P04150); test: GR luciferase antagonist assay (CHO/GR/MMTV Luciferase cells); type: cell-based; details: 10 nM Dexamethasone final, 16-18 h
T1 construct: expressed in transfected cells; host or cells: CHO cells carrying GR and an MMTV-luciferase reporter
T1 sequence (P04150 1-777): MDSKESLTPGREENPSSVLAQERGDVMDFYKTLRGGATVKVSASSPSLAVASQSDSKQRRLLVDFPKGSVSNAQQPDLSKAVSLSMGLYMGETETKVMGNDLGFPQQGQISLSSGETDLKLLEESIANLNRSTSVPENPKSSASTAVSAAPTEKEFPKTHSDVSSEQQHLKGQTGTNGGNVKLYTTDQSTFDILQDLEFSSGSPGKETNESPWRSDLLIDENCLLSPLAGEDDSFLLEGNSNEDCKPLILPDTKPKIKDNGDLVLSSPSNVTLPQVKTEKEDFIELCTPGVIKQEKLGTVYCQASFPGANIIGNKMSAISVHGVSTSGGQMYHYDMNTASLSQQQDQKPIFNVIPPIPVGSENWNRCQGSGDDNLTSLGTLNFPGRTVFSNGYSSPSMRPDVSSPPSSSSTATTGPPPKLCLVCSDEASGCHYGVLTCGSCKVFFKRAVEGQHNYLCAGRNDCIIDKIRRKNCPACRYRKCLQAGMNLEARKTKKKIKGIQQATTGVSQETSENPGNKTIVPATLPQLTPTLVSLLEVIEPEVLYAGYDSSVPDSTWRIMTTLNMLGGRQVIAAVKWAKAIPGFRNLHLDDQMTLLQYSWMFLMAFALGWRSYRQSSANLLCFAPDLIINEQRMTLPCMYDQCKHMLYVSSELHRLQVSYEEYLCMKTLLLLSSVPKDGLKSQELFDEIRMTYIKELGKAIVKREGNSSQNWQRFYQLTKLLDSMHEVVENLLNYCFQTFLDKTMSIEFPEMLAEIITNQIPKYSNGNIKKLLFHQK
Procedure: Example A: […] GR Luciferase Assay Cell Line: CHO/GR/MMTV Luciferase Culture Media: DMEM (with phenol red)+10% FBS Assay Media: DMEM (without phenol red)+10% CSS A 1×10 cm plate of cells was split into 2×15 cm plates in Assay Media (CSS). After 4 days, the cells in the Assay Media were collected and counted. Antagonist Assay: 1.5×10^4 cells per well were plated in a 384-well white walled TC plate in 20 ul of Assay Media containing 12.5 nM Dexamethasone (final concentration=10 nM). The plates were covered with film to avoid evaporation and placed in a TC incubator. Media/drug dilutions were prepared in Assay Media in 96-well sterile plates. 100 ul of Assay Media was distributed in aliquots into 96-well plates with an 8-Channel pipette (20-200 ul). 0.5 ul of 1000× concentration of compounds were added to the plates with 8-Channel pipette (0.5-10 ul). The plates were shaken for 15 seconds to mix. The film was removed from the 384-well plates with assay cells. 5 ul of media/drug dilutions were added to appropriate wells. The plates were covered with film to avoid evaporation and placed in a TC incubator overnight. After 16-18 h in the incubator, the plates were removed and sat at room temperature for 10 minutes to equilibrate. The Reagent Dispenser was setup to distribute 25 ul aliquots of OneGlo Luciferase Reagent (at room temperature) to each well of the 384-well plate using standard cassette. After OneGlo was added to the plates, the plates were shaken briefly, then incubated in the dark at room temperature for about 3 minutes. The plates were read using a Tecan or Promega luminometer. The ability of the compounds disclosed herein to inhibit GR activity was quantified and the respective IC50 value was determined. Table 3 provides the cellular IC50 values of various substituted steroidal compounds disclosed herein.

AR = AR agonism assay in LNAR reporter cell line; type: cell-based; details: for Relative Maximum Response to Mifepristone: LNAR cells (overexpressed AR, 4XARE-Luc), 10% CSS, 18-24 hrs, Mifepristone maximum response set to 1
Procedure: Example B: In Vitro AR Agonism Assay
The AR agonism assay was done in the LNAR reporter cell line which has overexpressed AR and 4XARE-Luc genes. This cell line is sensitive to even minor partial AR agonism activity in hormone-deprived media (CSS). The assays were done in RPMI (without phenol red)+10% CSS using 6000 LNAR cells/well in 384-well plates and compounds were incubated with cells in […] incubator for 18-24 hrs. OneGlo reagent (25 uL/well) was added and plates were read with luminometer within 3 minutes.
To gauge the AR partial agonism activity, Mifepristone is included as a standard in the assay. AR agonism assay results are quantified by determining the ratio of the maximum response of individual compounds to the maximum response of Mifepristone (arbitrarily set to 1). Values of Table 4 are reported as Relative Maximum Response to Mifepristone. This general trend of AR agonism was shown for the class of compounds described herein.

SMILES	IC50 (GR)	Relative Maximum Response to Mifepristone (AR)	partial AR agonism (AR; in concentrations as low as 10 nM)
CC(C)(C)C#C[C@]1(O)CC[C@H]2[C@@H]3CCC4=CC(=O)CC[C@@H]4[C@H]3[C@@H](c3ccc4c(c3)OCO4)C[C@@]21C [Compound 5, (8R,9S,10R,11S,13S,14S,17S)-11-(Benzo[d][1,3]dioxol-5-yl)-17-(3,3-dimethylbut-1-yn-1-yl)-17-hydroxy-13-methyl-1,2,6,7,8,9,10,11,12,13,14,15,16,17-tetradecahydro-3H-cyclopenta[a]phenanthren-3-one]	≤ 100 nM	–	–
CC(C)Nc1ccc([C@H]2C[C@@]3(C)[C@@H](CC[C@@]3(O)C#CC3CC3)[C@@H]3CCC4=CC(=O)CC[C@]4(C)[C@H]32)cc1 [Compound 18]	≤ 100 nM	A (A: ≤ 0.4)	–
CC(C)Nc1ccc([C@H]2C[C@@]3(C)[C@@H](CC[C@@]3(O)C#CC(C)(C)C)[C@@H]3CCC4=CC(=O)CC[C@@H]4[C@H]32)cc1F [Compound 14, (8R,9S,10R,11S,13S,14S,17S)-17-(3,3-dimethylbut-1-yn-1-yl)-11-(3-fluoro-4-(isopropylamino)phenyl)-17-hydroxy-13-methyl-1,2,6,7,8,9,10,11,12,13,14,15,16,17-tetradecahydro-3H-cyclopenta[a]phenanthren-3-one]	> 100 nM	A (A: ≤ 0.4)	–
CN(c1ccc([C@H]2C[C@@]3(C)[C@@H](CC[C@@]3(O)C#CC(C)(C)C)[C@@H]3CCC4=CC(=O)CC[C@@H]4[C@H]32)cc1)C(C)(C)C [Compound 11, (8R,9S,10R,11S,13S,14S,17S)-11-(4-(tert-Butyl(methyl)amino)phenyl)-17-(3,3-dimethylbut-1-yn-1-yl)-17-hydroxy-13-methyl-1,2,6,7,8,9,10,11,12,13,14,15,16,17-tetradecahydro-3H-cyclopenta[a]phenanthren-3-one]	≤ 100 nM	A (A: ≤ 0.4)	–
CCN(CC)c1ccc([C@H]2C[C@@]3(C)[C@@H](CC[C@@]3(O)C#CC(C)(C)C)[C@@H]3CCC4=CC(=O)CC[C@@H]4[C@H]32)cc1 [Compound 9, (8R,9S,10R,11S,13S,14S,17S)-11-(4-(Diethylamino)phenyl)-17-(3,3-dimethylbut-1-yn-1-yl)-17-hydroxy-13-methyl-1,2,6,7,8,9,10,11,12,13,14,15,16,17-tetradecahydro-3H-cyclopenta[a]phenanthren-3-one]	≤ 100 nM	–	–
CC(C)(C)C#C[C@]1(O)CC[C@H]2[C@@H]3CCC4=CC(=O)CC[C@@H]4[C@H]3[C@@H](c3ccc4c(c3)OCCO4)C[C@@]21C [Compound 3, (8R,9S,10R,11S,13S,14S,17S)-11-(2,3-Dihydrobenzo[b][1,4]dioxin-6-yl)-17-(3,3-dimethylbut-1-yn-1-yl)-17-hydroxy-13-methyl-1,2,6,7,8,9,10,11,12,13,14,15,16,17-tetradecahydro-3H-cyclopenta[a]phenanthren-3-one]	≤ 100 nM	–	–
CC(C)N(C)c1ccc([C@H]2C[C@@]3(C)[C@@H](CC[C@@]3(O)C#CC(C)(C)C)[C@@H]3CCC4=CC(=O)CC[C@]4(C)[C@H]32)cc1 [Compound 16]	> 100 nM	–	–
CC#C[C@]1(O)CC[C@H]2[C@@H]3CCC4=CC(=O)CCC4=C3[C@@H](c3ccc(N(C)C)cc3)C[C@@]21C [Mifepristone, reference compound]	–	–	strong partial AR agonism
CC(C)N(C)c1ccc([C@H]2C[C@@]3(C)[C@@H](CC[C@@]3(O)C#CC(C)(C)C)[C@@H]3CCC4=CC(=O)CC[C@@H]4[C@H]32)cc1F [Compound 15, (8R,9S,10R,11S,13S,14S,17S)-17-(3,3-Dimethylbut-1-yn-1-yl)-11-(3-fluoro-4-(isopropyl(methyl)amino)phenyl)-17-hydroxy-13-methyl-1,2,6,7,8,9,10,11,12,13,14,15,16,17-tetradecahydro-3H-cyclopenta[a]phenanthren-3-one]	≤ 100 nM	–	–
CCC#C[C@]1(O)CC[C@H]2[C@@H]3CCC4=CC(=O)CC[C@]4(C)[C@H]3[C@@H](c3ccc(NC)cc3)C[C@@]21C [Compound 12]	> 100 nM	–	–
CC(C)(C)C#C[C@]1(O)CC[C@H]2[C@@H]3CCC4=CC(=O)CC[C@@H]4[C@H]3[C@@H](c3ccc(N)cc3)C[C@@]21C [Compound 13, (8R,9S,10R,11S,13S,14S,17S)-11-(4-Aminophenyl)-17-(3,3-dimethylbut-1-yn-1-yl)-17-hydroxy-13-methyl-1,2,6,7,8,9,10,11,12,13,14,15,16,17-tetradecahydro-3H-cyclopenta[a]phenanthren-3-one]	≤ 100 nM	–	–

Second part, led by results:

IC50 (GR)	SMILES	Relative Maximum Response to Mifepristone (AR)	partial AR agonism (AR; in concentrations as low as 10 nM)
> 100 nM	CC#C[C@]1(O)CC[C@H]2[C@@H]3CCC4=CC(=O)CC[C@]4(C)[C@H]3[C@@H](c3ccc(NC)cc3)C[C@@]21C [Compound 23]	–	–
> 100 nM	CC#C[C@]1(O)CC[C@H]2[C@@H]3CCC4=CC(=O)CC[C@]4(C)[C@H]3[C@@H](c3ccc(N)cc3)C[C@@]21C [Compound 26, (8S,9R,10R,11S,13S,14S,17S)-11-(4-Aminophenyl)-17-hydroxy-10,13-dimethyl-17-(prop-1-yn-1-yl)-1,2,6,7,8,9,10,11,12,13,14,15,16,17-tetradecahydro-3H-cyclopenta[a]phenanthren-3-one]	–	–
> 100 nM	C[C@]12CCC(=O)C=C1CC[C@@H]1[C@@H]2[C@@H](c2ccc(N3CCCC3)cc2)C[C@@]2(C)[C@H]1CC[C@@]2(O)C#CC1CC1 [Compound 28]	–	–
≤ 100 nM	CC(C)(C)C#C[C@]1(O)CC[C@H]2[C@@H]3CCC4=CC(=O)CC[C@@H]4[C@H]3[C@@H](c3ccc(N4CCN(S(C)(=O)=O)CC4)cc3)C[C@@]21C [Compound 27]	–	–
≤ 100 nM	CC#C[C@]1(O)CC[C@H]2[C@@H]3CCC4=CC(=O)CC[C@]4(C)[C@H]3[C@@H](c3ccc(-n4cccc4)cc3)C[C@@]21C [Compound 31, (8S,9R,10R,11S,13S,14S,17S)-11-(4-(1H-Pyrrol-1-yl)phenyl)-17-hydroxy-10,13-dimethyl-17-(prop-1-yn-1-yl)-1,2,6,7,8,9,10,11,12,13,14,15,16,17-tetradecahydro-3H-cyclopenta[a]phenanthren-3-one]	–	–
≤ 100 nM	CC(=O)N1CCN(c2ccc([C@H]3C[C@@]4(C)[C@@H](CC[C@@]4(O)C#CC(C)(C)C)[C@@H]4CCC5=CC(=O)CC[C@@H]5[C@H]43)cc2)CC1 [Compound 24]	–	–
≤ 100 nM	C[C@]12CCC(=O)C=C1CC[C@@H]1[C@@H]2[C@@H](c2ccc(N3CCCC3)cc2)C[C@@]2(C)[C@H]1CC[C@@]2(O)C#CC(F)(F)F [Compound 29]	–	–
> 100 nM	CC#C[C@]1(O)CC[C@H]2[C@@H]3CCC4=CC(=O)CC[C@]4(C)[C@H]3[C@@H](c3ccc(NC(C)C)cc3)C[C@@]21C [Compound 30, (8S,9R,10R,11S,13S,14S,17S)-17-Hydroxy-11-(4-(isopropylamino)phenyl)-10,13-dimethyl-17-(prop-1-yn-1-yl)-1,2,6,7,8,9,10,11,12,13,14,15,16,17-tetradecahydro-3H-cyclopenta[a]phenanthren-3-one]	–	–
